Values quoted from earlier work as cited in US20150216903A1, “COMPOUNDS FOR IMPROVED VIRAL TRANSDUCTION” (BLUEBIRD BIO, INC., priority 2012, published 2015).

Key:
HIV = conditions: previous publications (Hayes 2002); cited from earlier work
[1] = Raz, FEBS Letters 1972; cited from earlier work

Row | Structure (SMILES) | effect on HIV replication (HIV) | conversion upon exposure to plasma [1]
1 | CCCCC[C@H](O)/C=C/[C@H]1C=CC(=O)[C@@H]1C/C=C\CCCC(=O)O [PGA2, prostaglandin A2] | inhibits HIV replication | 
2 | CCCCC[C@H](O)/C=C/[C@H]1[C@H](O)CC(=O)[C@@H]1C/C=C\CCCC(=O)O [PGE2, prostaglandin E2] | antagonistic to HIV replication | rapidly converts to prostaglandin A2 (PGA2)
